Experimental data as given in ChEMBL document CHEMBL1126761, “A novel constrained reduced-amide inhibitor of HIV-1 protease derived from the sequential incorporation of gamma-turn mimetics into a model substrate” (J Med Chem, 1993).
pKi: −log10 of the molar value. *1 amine or outer side, *2 acyl side, *3 side chain or, on linkers, in order; H or OH if unused. Where a SMILES comes first, the peptide text is derived from it. [ ]: non-standard residue; d: D form. X1 = CC(N[*:1])C1=CCC(=O)N([C@@H](Cc2ccccc2)C(=O)[*:2])CC1; X2 = O=C([C@@H]1CCCN1C[C@H](Cc1ccccc1)N[*:1])[*:2]

Molecular target: Human immunodeficiency virus type 1 protease (Human immunodeficiency virus 1, UniProt Q72874)
Assay: Inhibition constant was determined against HIV-1 protease

With `COC(=O)[C@@H](NC(=O)[C@@H](NC(=O)[C@H](C)N1CCC([C@H](C)NC(=O)[C@H](C)N)=CC(Cc2ccccc2)C1=O)C(C)C)C(C)C` (stereo in doubt; form 1) as the compound, how does the pKi read?
The pKi was 3.43.

`COC(=O)[C@@H](NC(=O)[C@H](C(C)C)N1CCC(C(Cc2ccccc2)NC(=O)[C@H](C)NC(=O)[C@H](C)NC(=O)[C@@H](N)CO)=CCC1=O)C(C)C` (stereo in doubt; form 2) was tested. Which pKi did it give?
Its pKi is 2.77.

With `CC(C)[C@H](NC(=O)[C@@H](NC(=O)[C@@H]1CCCN1C[C@H](Cc1ccccc1)NC(=O)[C@H](C)NC(=O)[C@H](C)NC(=O)[C@@H](N)CO)C(C)C)C(N)=O` (H-SAA[X2]VV-NH2) as the compound, how does the pKi read?
Its pKi is 4.73.

With `CC(NC(=O)[C@@H](N)CO)C1=CCC(=O)N([C@@H](Cc2ccccc2)C(=O)N2CCC[C@H]2C(=O)N[C@H](C(=O)N[C@H](C(N)=O)C(C)C)C(C)C)CC1` (some centres not stated) (H-S[X1]PVV-NH2) as the compound, how does the pKi read?
Its pKi is < 2.70.

`COC(=O)[C@@H](NC(=O)[C@H](C(C)C)N1CCC(C(Cc2ccccc2)NC(=O)[C@H](C)NC(=O)[C@H](C)NC(=O)[C@@H](N)CO)=CCC1=O)C(C)C` (stereo in doubt; form 1) was tested. Which pKi did it give?
Its pKi is < 2.70.

`COC(=O)[C@@H](NC(=O)[C@@H](NC(=O)[C@H](C)N1CCC([C@H](C)NC(=O)[C@H](C)N)=CC(Cc2ccccc2)C1=O)C(C)C)C(C)C` (stereo in doubt; form 2) was tested. Which pKi did it give?
Its pKi is 3.83.

`COC(=O)[C@@H](NC(=O)[C@@H](NC(=O)[C@H](C)N1CCC([C@H](C)NC(=O)[C@H](C)N)=CC(Cc2ccccc2)C1)C(C)C)C(C)C` (stereo in doubt; form 1) was tested. Which pKi did it give?
Its pKi is 6.37.
